What was measured:
MC3T3-E1 cells = test: ALP activity analysis of MC3T3-E1 cells; type: cell-based, mouse; settings: osteogenic differentiation medium, GPA 50 μM or SGPA 2.5-10 μM; 14 days (method) / 7 days (Fig. 3 legend)
FXR-RUNX2 signalling = FXR-RUNX2 signalling in femur of OVX mice; type: in vivo, C57BL/6J mice; settings: 20 mg/kg intravenously daily for 4 weeks, qRT-PCR, n = 6
[1] = ref [9],[10]; cited from earlier work
[2] = system: farnesoid X receptor (FXR); settings: ref [11],[12]; cited from earlier work
[3] = system: osteoblast-specific factor 2 (OSF-2); settings: ref [21]; cited from earlier work
human and mouse OBs = settings: peptide screened by phage technology; ref [21]; cited from earlier work

Row | Compound | ALP activity (MC3T3-E1 cells) | mRNA expression of Bsep (a target gene for FXR) in femur (FXR-RUNX2 signalling) | mRNA expression of Runx2 in femur (FXR-RUNX2 signalling) | tissue enrichment of GPA [1] | activation of farnesoid X receptor (FXR) [2] | affinity with osteoblast-specific factor 2 (OSF-2) [3] | targeting of OBs (human and mouse OBs)
1 | O=C(O)C1=CO[C@@H](O[C@@H]2O[C@H](CO)[C@@H](O)[C@H](O)[C@H]2O)[C@@H]2C(CO)=CC[C@H]12 [GPA, Geniposidic acid] | increased | significantly increased | significantly increased | enriched in liver and kidney | activated |  | 
2 | Ser-Asp-Ser-Ser-Asp [SDSSD] |  |  |  |  |  | high affinity | can specifically target both human and mouse OBs

Reference: article PMC9579733 (Journal of Orthopaedic Translation, 2022)
